The supplement of paper PMC13380429

Key:
Details in all cases: 72 h
U2OS [1] = assay: cell viability relative to DMSO; higher = less toxic
Vero E6 [2] = assay: as above
HepG2 [3] = assay: as above
Calu-3 [4] = assay: as above
Caco-2 [5] = assay: as above
U2OS [6] = assay: drug sensitivity score (DSS) for viability; higher = more toxic; extreme values may be limits of the assay
Vero E6 [7] = assay: as above
HepG2 [8] = assay: as above
Calu-3 [9] = assay: as above
Caco-2 [10] = assay: as above
U2OS [11] = assay: relative viability EC50 (midpoint between 100% and the lowest measured viability); higher = less toxic
Vero E6 [12] = assay: as above
HepG2 [13] = assay: as above
Calu-3 [14] = assay: as above
Caco-2 [15] = assay: as above

SMILES | cell viability (U2OS [1]; 1 nM) [%] | cell viability (U2OS [1]; 10 nM) [%] | cell viability (U2OS [1]; 100 nM) [%] | cell viability (U2OS [1]; 1000 nM) [%] | cell viability (U2OS [1]; 10000 nM) [%] | cell viability (Vero E6 [2]; 1 nM) [%] | cell viability (Vero E6 [2]; 10 nM) [%] | cell viability (Vero E6 [2]; 100 nM) [%] | cell viability (Vero E6 [2]; 1000 nM) [%] | cell viability (Vero E6 [2]; 10000 nM) [%] | cell viability (HepG2 [3]; 1 nM) [%] | cell viability (HepG2 [3]; 10 nM) [%] | cell viability (HepG2 [3]; 100 nM) [%] | cell viability (HepG2 [3]; 1000 nM) [%] | cell viability (HepG2 [3]; 10000 nM) [%] | cell viability (Calu-3 [4]; 1 nM) [%] | cell viability (Calu-3 [4]; 10 nM) [%] | cell viability (Calu-3 [4]; 100 nM) [%] | cell viability (Calu-3 [4]; 1000 nM) [%] | cell viability (Calu-3 [4]; 10000 nM) [%] | cell viability (Caco-2 [5]; 1 nM) [%] | cell viability (Caco-2 [5]; 10 nM) [%] | cell viability (Caco-2 [5]; 100 nM) [%] | cell viability (Caco-2 [5]; 1000 nM) [%] | cell viability (Caco-2 [5]; 10000 nM) [%] | drug sensitivity score (U2OS [6]) | drug sensitivity score (Vero E6 [7]) | drug sensitivity score (HepG2 [8]) | drug sensitivity score (Calu-3 [9]) | drug sensitivity score (Caco-2 [10]) | relative viability EC50 (U2OS [11]) [µM] | relative viability EC50 (Vero E6 [12]) [µM] | relative viability EC50 (HepG2 [13]) [µM] | relative viability EC50 (Calu-3 [14]) [µM] | relative viability EC50 (Caco-2 [15]) [µM]
CC(=O)OCC(=O)[C@@]1(O)CC[C@H]2[C@@H]3CCC4=CC(=O)C=C[C@]4(C)[C@@]3(F)[C@@H](O)C[C@@]21C [isoflupredone-acetate] | 96.4 | 98.2 | 94.5 | 99.4 | 105 | 100 | 101 | 96 | 94.5 | 107 | 102 | 92.3 | 102 | 99.2 | 104 | 92.6 | 97.2 | 82.4 | 93.2 | 107 | 104 | 96.9 | 97 | 103 | 102 | 0 | 0 | 0 | 0 | 0 | > 10 | > 10 | > 10 | > 10 | > 10
COc1ccc(Cc2cnc(N)nc2N)cc1OC [diaveridine] | 105 | 103 | 107 | 96.7 | 102 | 99.5 | 104 | 97 | 98.2 | 94.3 | 95.6 | 102 | 89.2 | 95.8 | 98 | 86.6 | 94.4 | 97.7 | 84.3 | 88.9 | 96.9 | 90.4 | 100 | 93 | 96.6 | 0 | 0 | 0 | 0 | 0 | > 10 | > 10 | > 10 | > 10 | > 10
CCOc1ccc(C[C@H]2NC(=O)CCSSC[C@@H](C(=O)N3CCC[C@H]3C(=O)N[C@@H](CCCN)C(=O)NCC(N)=O)NC(=O)[C@H](CC(N)=O)NC(=O)[C@H]([C@@H](C)O)NC(=O)[C@H]([C@@H](C)CC)NC2=O)cc1 [atosiban] | 100 | 99.1 | 94.9 | 100 | 98.7 | 102 | 96.2 | 110 | 102 | 100 | 107 | 99.5 | 92.8 | 90.4 | 97.4 | 103 | 105 | 103 | 118 | 98.9 | 93.1 | 108 | 102 | 102 | 91.8 | 0 | 0 | 0 | 0 | 0 | > 10 | > 10 | > 10 | > 10 | > 10
CN1Cc2c(C(=O)OC(C)(C)C)ncn2-c2ccsc2C1=O [Ro-19-4605] | 94.5 | 92.8 | 95.4 | 102 | 97.2 | 101 | 96.4 | 103 | 96.8 | 103 | 105 | 96.9 | 115 | 96.6 | 108 | 96.9 | 98 | 89 | 103 | 99.3 | 98.8 | 102 | 101 | 100 | 103 | 0 | 0 | 0 | 0 | 0 | > 10 | > 10 | > 10 | > 10 | > 10
COc1nccnc1NS(=O)(=O)c1ccc(N)cc1 [sulfametopyrazine] | 102 | 95.4 | 104 | 96.8 | 98.9 | 102 | 107 | 95.2 | 100 | 97.5 | 97.6 | 99.7 | 103 | 91.9 | 99.4 | 98.5 | 97 | 98.1 | 101 | 102 | 99.7 | 87.3 | 101 | 89.7 | 102 | 0 | 0 | 0 | 0 | 0 | > 10 | > 10 | > 10 | > 10 | > 10
CNC(=O)c1cc(COc2nnc(Nc3ccc(Cl)cc3)c3ccoc23)ccn1 [telatinib] | 101 | 97.6 | 101 | 98 | 92.4 | 92.7 | 95.5 | 92.1 | 93.3 | 102 | 85.9 | 106 | 97.7 | 101 | 114 | 106 | 106 | 98.8 | 96.6 | 104 | 96.6 | 95.4 | 99.3 | 97.2 | 98.8 | 0 | 0 | 0 | 0 | 0 | > 10 | > 10 | > 10 | > 10 | > 10
CCc1cc(/C(C)=N/OCc2ccc(C3CCCCC3)c(C(F)(F)F)c2)ccc1CN1CC(C(=O)O)C1 [siponimod] | 101 | 99.5 | 96.6 | 101 | 98.7 | 102 | 101 | 98.6 | 96.6 | 96.4 | 104 | 89.8 | 91.3 | 110 | 97.4 | 116 | 99.7 | 98.8 | 96.6 | 97.6 | 93.6 | 107 | 91.3 | 97.6 | 81.3 | 0 | 0 | 0 | 0 | 0.8 | > 10 | > 10 | > 10 | > 10 | > 10
CCC(=O)O[C@]1(C(=O)COC(C)=O)CC[C@H]2[C@@H]3C[C@H](C)C4=CC(=O)C=C[C@]4(C)[C@H]3[C@@H](O)C[C@@]21C [methylprednisolone-aceponate] | 101 | 94.3 | 98.5 | 96.9 | 98.1 | 88 | 100 | 92.6 | 98.3 | 104 | 92.1 | 101 | 91.1 | 101 | 99.3 | 101 | 91.6 | 91.1 | 95.1 | 96.5 | 89.6 | 95.1 | 97.4 | 96.5 | 105 | 0 | 0 | 0 | 0 | 0 | > 10 | > 10 | > 10 | > 10 | > 10
Clc1cccc(SC2CCNCC2)n1 [anpirtoline] | 99.3 | 96.5 | 100 | 96.1 | 100 | 102 | 104 | 99.1 | 98.4 | 96.5 | 109 | 102 | 107 | 104 | 97.9 | 94.9 | 98.6 | 93.5 | 98.3 | 114 | 93.1 | 93.5 | 101 | 100 | 96.8 | 0 | 0 | 0 | 0 | 0 | > 10 | > 10 | > 10 | > 10 | > 10
C[C@@](Cc1ccc(O)c(O)c1)(NN)C(=O)O [carbidopa] | 92.9 | 99.9 | 92.8 | 100 | 102 | 92.6 | 87.6 | 91.4 | 90.4 | 106 | 107 | 113 | 101 | 98.5 | 95.8 | 100 | 103 | 89.5 | 114 | 99.9 | 98.1 | 94.4 | 95.1 | 110 | 108 | 0 | 0 | 0 | 0 | 0 | > 10 | > 10 | > 10 | > 10 | > 10
CC(=O)NCCC(=O)N[C@@H](Cc1c[nH]cn1)C(=O)O [N-acetylcarnosine] | 98 | 101 | 101 | 97.5 | 94.7 | 112 | 92.1 | 102 | 108 | 98.4 | 98.8 | 88.3 | 93.3 | 96.2 | 87.9 | 106 | 99.2 | 94.5 | 101 | 96.3 | 97.3 | 105 | 88.7 | 86.5 | 112 | 0 | 0 | 0 | 0 | 0 | > 10 | > 10 | > 10 | > 10 | > 10
FC(F)(F)c1ccccc1-c1cc(C(F)(F)F)c2[nH]c(C3=NOC4(CCCCC4)C3)nc2c1 [TC-I-2014] | 106 | 103 | 103 | 100 | 90.7 | 95.6 | 98.8 | 90.1 | 94.8 | 89.5 | 91.6 | 103 | 97.4 | 98.4 | 89.3 | 112 | 105 | 97.7 | 99.8 | 97.7 | 91.9 | 95.5 | 96.8 | 93.4 | 89.8 | 0 | 0 | 0 | 0 | 0 | > 10 | > 10 | > 10 | > 10 | > 10
CNC[C@@H]1CC[C@@H](N)[C@@H](O[C@H]2[C@H](O)[C@@H](O[C@H]3OC[C@](C)(O)[C@H](NC)[C@H]3O)[C@H](N)C[C@@H]2N)O1 [micronomicin] | 96 | 104 | 99.1 | 102 | 99.3 | 98.9 | 99.8 | 98.6 | 99.4 | 99.4 | 93.8 | 96.8 | 105 | 100 | 106 | 105 | 113 | 105 | 98 | 95.5 | 98.4 | 96.1 | 104 | 96 | 97.5 | 0 | 0 | 0 | 0 | 0 | > 10 | > 10 | > 10 | > 10 | > 10
C[N+](C)(C)CC#CCN1CCCC1=O [oxotremorine-M] | 102 | 105 | 97.5 | 102 | 99.5 | 94.5 | 93.5 | 93.5 | 96 | 95.7 | 92 | 108 | 92 | 102 | 99.1 | 94.9 | 98.3 | 91 | 102 | 102 | 102 | 104 | 93.7 | 107 | 98.6 | 0 | 0 | 0 | 0 | 0 | > 10 | > 10 | > 10 | > 10 | > 10
